Results from PubChem BioAssay (NCI).
“And” between values parts separate entries of the source, which are not always exact repeats. Equal values may be shown once.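 All cell lines were grown in 96-well plates and treated with compound for 48 hours. GI50: concentration for 50% inhibition of growth. Definition used: TGI = concentration required for complete inhibition of growth.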

Tests used:
Assay in all cases: NCI tumour cell line growth inhibition, 48 h
IGROV1 ovarian = test system: IGROV1 ovarian
NCI-H226 lung = test system: NCI-H226 lung
OVCAR-3 ovarian = test system: OVCAR-3 ovarian
SF-268 CNS = test system: SF-268 CNS
SK-OV-3 ovarian = test system: SK-OV-3 ovarian
SNB-19 CNS = test system: SNB-19 CNS
TK-10 renal = test system: TK-10 renal
DU-145 prostate = test system: DU-145 prostate
MCF7 breast = test system: MCF7 breast
MDA-MB-435 = test system: MDA-MB-435

| SMILES | TGI (IGROV1 ovarian) | TGI (NCI-H226 lung) | TGI (OVCAR-3 ovarian) | TGI (SF-268 CNS) | TGI (SK-OV-3 ovarian) | TGI (SNB-19 CNS) | TGI (TK-10 renal) | GI50 (DU-145 prostate) | TGI (DU-145 prostate) | GI50 (IGROV1 ovarian) | GI50 (MCF7 breast) | TGI (MCF7 breast) | GI50 (MDA-MB-435) | TGI (MDA-MB-435) | GI50 (NCI-H226 lung) | GI50 (SF-268 CNS) | GI50 (SK-OV-3 ovarian) | GI50 (SNB-19 CNS) | GI50 (TK-10 renal) | GI50 (OVCAR-3 ovarian) |
| --- | --- | --- | --- | --- | --- | --- | --- | --- | --- | --- | --- | --- | --- | --- | --- | --- | --- | --- | --- | --- |
| Cc1nc2c(=O)n(C)c(=O)nc-2n(-c2ccc(Cl)cc2)c1C | > 100 µM | > 100 µM | > 100 µM | > 100 µM | > 100 µM | > 100 µM | > 100 µM | – | – | – | – | – | – | – | – | – | – | – | – | – |
| C[As](C)SCC(COC(=O)c1ccccc1)OC(=O)c1ccccc1 (stereo not drawn) | 17.1 µM | 3.75 µM | 0.023 µM | 4.42 µM | 18.1 µM | 19.6 µM | 0.126 µM | 0.473 µM | 4.17 µM | 0.918 µM | 0.0462 µM | 0.312 µM | 0.0191 µM | 0.0664 µM | 1.09 µM | 0.344 µM | 3.16 µM | 3.63 µM | 0.0159 µM | – |
| CN(C)c1ccc(/C=C/C(=O)c2ccc(Nc3nc(Nc4ccc(F)cc4)nc(Nc4ccc(Cl)cc4)n3)cc2)cc1 | 22.1 µM | > 100 µM | 21.6 µM | 63.6 µM | 74.9 µM | > 100 µM | 81.3 µM | 5.5 µM | 27 µM | 3.02 µM | 2.61 µM | 21.5 µM | 3.03 µM | 17.3 µM | 15.6 µM | 6.75 µM | 19 µM | 17.1 µM | 11.3 µM | 5.48 µM |
| COc1ccc(N2CCN(CC(=O)N3CCN(c4nnc(-c5ccc(Cl)cc5)c(-c5ccc(Cl)cc5)n4)CC3)CC2)cc1 | > 100 µM | > 100 µM | > 100 µM | > 100 µM | > 100 µM | > 100 µM | > 100 µM | 75 µM | > 100 µM | 16 µM | 3.91 µM | > 100 µM | 9.06 µM | > 100 µM | > 100 µM | > 100 µM | > 100 µM | > 100 µM | 9.18 µM | 11.3 µM |
| COc1cccc2c1C(=N)c1c(O)c3c(c(O)c1C2=O)C[C@@](O)(C(C)=O)C[C@@H]3OC1CC(N)C(O)C(C)O1 (stereo partly drawn) | 6.39 µM and 9.25 µM | – | 5.43 µM and 4.73 µM and 13 µM | 3.07 µM and 4.61 µM and 5.69 µM | 1.85 µM and 4.8 µM and 13.6 µM | – | 3.7 µM and 2.02 µM | 0.018 µM | 0.0618 µM | – | – | 24.8 µM and 13.4 µM | 1.1 µM | 4.47 µM | – | – | – | – | 0.234 µM | – |
| CNCc1ccc(C)c(NC(=O)c2ccc(Nc3nc(-c4ccccc4)c4ccccc4n3)cc2)c1 | – | 4.9 µM | 3.84 µM | 4.26 µM | 4.08 µM | – | 4.56 µM | 2.88 µM | 7.65 µM | – | 1.58 µM | 3.25 µM | 1.6 µM | 3.22 µM | 1.98 µM | 2.09 µM | 2.18 µM | – | 2.12 µM | 1.9 µM |
| CC[N+]1(C)CCC(O)(/C=C/c2ccccc2)C(C(=O)/C=C/c2ccccc2)C1 (stereo not drawn) | 37.9 µM | 29.7 µM | 28 µM | 60.5 µM | 32.9 µM | 29.7 µM | 18.3 µM | – | 39.1 µM | – | – | > 23.7 µM | – | 31.7 µM | – | – | – | – | – | – |
| N#Cc1c(-c2ccc(Cl)cc2)n([O-])c2ccccc2[n+]1=O | 15.6 µM | 46.7 µM | 2.88 µM | 33.8 µM | 72.3 µM | 48.6 µM | 24.6 µM | 18.1 µM | 32.8 µM | 2.89 µM | 15.9 µM | > 100 µM | 13.7 µM | 27 µM | 18.1 µM | 14.6 µM | 24.8 µM | 20.6 µM | 11.7 µM | 1.27 µM |
| COCC(O)CN1C(N)=NC(O)C1O (stereo not drawn) | – | > 100 µM | – | > 100 µM | – | > 100 µM | > 100 µM | – | – | – | – | – | – | – | – | – | – | – | – | – |
| NC(=O)NOCC1NC(=O)NC1=O (stereo not drawn) | > 100 µM | > 100 µM | > 100 µM | > 100 µM | > 100 µM | > 100 µM | > 100 µM | – | > 100 µM | – | – | > 100 µM | – | > 100 µM | – | – | – | – | – | – |
| COc1ccc(-c2nccn2-c2cc(OC)c(OC)c(OC)c2)cc1 | > 100 µM | > 100 µM | – | > 100 µM | > 25.6 µM | > 35.6 µM | > 100 µM | 13.1 µM | > 100 µM | 1.79 µM | 1.27 µM | > 100 µM | 0.222 µM | 3.25 µM | 14.6 µM | 16.6 µM | 6.13 µM | 4.77 µM | 10.7 µM | 1.07 µM |
| CCOC(=O)c1ccccc1NC(c1ccccc1)c1ccc2cccnc2c1O (stereo not drawn) | 24.1 µM | 13.9 µM | 23.4 µM | 29 µM | 56.4 µM | > 100 µM | > 100 µM | 5.94 µM | > 100 µM | 4.01 µM | 2.98 µM | 45 µM | 5.41 µM | 61.6 µM | 2.69 µM | 3.14 µM | 3.64 µM | 2.83 µM | 5.52 µM | 3.85 µM |
| O=C1[C@@H]2C3C=CC([C@H]4C(=O)N(CO)C(=O)[C@@H]34)[C@@H]2C(=O)N1CO | > 100 µM | > 100 µM | > 100 µM | > 77.7 µM | > 100 µM | > 100 µM | > 100 µM | – | – | – | – | – | – | – | – | – | – | – | – | – |
| O=C1c2ccccc2CC1C1(O)C(=O)Nc2c(Cl)cc(Cl)cc21 (stereo not drawn) | – | > 100 µM | > 100 µM | > 100 µM | > 100 µM | > 100 µM | > 100 µM | – | – | – | – | – | – | – | – | – | – | – | – | – |
| NCCN.O=N[O-].O=N[O-].O=N[O-].O=N[O-].[Co+3].[K+] | > 100 µM | – | > 100 µM | > 100 µM | > 100 µM | > 100 µM | > 100 µM | – | – | > 100 µM | – | – | – | – | – | > 100 µM | > 100 µM | > 100 µM | > 100 µM | > 100 µM |
| CCCCCC1C2C(=O)NC(=O)C1C(=O)NC2=O (stereo not drawn) | > 100 µM | > 100 µM | > 100 µM | > 100 µM | > 100 µM | > 100 µM | > 100 µM | – | – | – | – | – | – | – | – | – | – | – | – | – |
